According to patent US20240180880A1, “METHODS OF USING EHMT2 INHIBITORS IN TREATING OR PREVENTING BLOOD DISORDERS” (Epizyme, Inc., priority 2017, published 2024):
Like-named read-outs stand apart in the source and are kept apart here.

System: 284 cell lines
Experiment: cells
Settings: Homo sapiens
Method: A screen of 284 cell lines to assess the antiproliferative effect of EHMT2 inhibition was conducted by treating cell lines in 384-well format with a half-log step dilutions of Compound 205 over 10 concentrations with a maximum concentration of 0.1% v/v DMSO. Cells were plated on Day 0 and treated with compound on Day 1. Culture medium was replaced on day 7 and cells redosed. After 10-day incubation, cells were fixed and stained with nuclear dye. Automated fluorescence microscopy was carried out using a Molecular Devices ImageXpress Micro XL high-content imager, and images were collected with a 4× objective. 16-bit TIFF images were acquired and analyzed with MetaXpress 5.1.0.41 software. Cell proliferation was measured by the fluorescence intensity of the incorporated nuclear dye. Cell count IC50 is the test compound concentration at 50% of maximal response of the untreated control.

Structure (SMILES): CNc1cc(C)nc(Nc2ccc(OC)c(OCCCN3CCCC3)c2)n1 [Compound 205]
- IC50 (DU-145, read-out: Cell Count IC50, DU145, Prostate): > 10 µM
- IC50 (Daoy, read-out: Cell Count IC50, Daoy, Central Nervous System, Medulloblastoma): 1 to 10 µM
- IC50 (Daudi, read-out: Cell Count IC50, Daudi, Hematopoietic, Lymphoma): 1 to 10 µM
- IC50 (Detroit 562, read-out: Cell Count IC50, Detroit 562, Head and Neck): 1 to 10 µM
- IC50 (DoTc2-4510, read-out: Cell Count IC50, DoTc2 4510, Female GU, Cervix): 1 to 10 µM
- IC50 (EFM-19, read-out: Cell Count IC50, EFM-19, Breast): > 10 µM
- IC50 (FaDu, read-out: Cell Count IC50, FaDu, Head and Neck): 1 to 10 µM
- IC50 (G292, read-out: Cell Count IC50, G-292, clone A141B1, Bone, Osteosarcoma): > 10 µM
- IC50 (G-361, read-out: Cell Count IC50, G-361, Skin, Melanoma): 1 to 10 µM
- IC50 (G-401, read-out: Cell Count IC50, G-401, Kidney): > 10 µM
- IC50 (G-402, read-out: Cell Count IC50, G-402, Kidney): 1 to 10 µM
- IC50 (HCT-8, read-out: Cell Count IC50, HCT-8, Colon): > 10 µM
- IC50 (HCT-15, read-out: Cell Count IC50, HCT-15, Colon): > 10 µM
- IC50 (HCT-116, read-out: Cell Count IC50, HCT-116, Colon): > 10 µM
- IC50 (HEC-1-A, read-out: Cell Count IC50, HEC-1-A, Female GU, Uterus): 1 to 10 µM
- IC50 (HEL 92.1.7, read-out: Cell Count IC50, HEL-92-1-7, Hematopoietic, Leukemia): > 10 µM
- IC50 (HMCB, read-out: Cell Count IC50, HMCB, Skin, Melanoma): > 10 µM
- IC50 (HPAF-II, read-out: Cell Count IC50, HPAF-II, Pancreas): 1 to 10 µM
- IC50 (HT1197, read-out: Cell Count IC50, HT-1197, Bladder): 1 to 10 µM
- IC50 (HT-29, read-out: Cell Count IC50, HT-29, Colon): 1 to 10 µM
- IC50 (HT-1080, read-out: Cell Count IC50, HT-1080, Soft & Connective Tissue, Sarcoma): > 10 µM
- IC50 (HT-1376, read-out: Cell Count IC50, HT1376, Bladder): > 10 µM
- IC50 (HeLa, read-out: Cell Count IC50, HeLa, Female GU, Cervix): > 10 µM
- IC50 (HepG2, read-out: Cell Count IC50, HepG2, Liver): > 10 µM
- IC50 (Hs 294T, read-out: Cell Count IC50, Hs 294T, Skin, Melanoma): 1 to 10 µM
- IC50 (Hs 683, read-out: Cell Count IC50, Hs 683, Central Nervous System, Glioma): 1 to 10 µM
- IC50 (Hs 695T, read-out: Cell Count IC50, Hs 695T, Skin, Melanoma): 1 to 10 µM
- IC50 (Hs746T, read-out: Cell Count IC50, HS 746T, Stomach): > 10 µM
- IC50 (Hs-578T, read-out: Cell Count IC50, Hs 578T, Breast): > 10 µM
- IC50 (HuCCT-1, read-out: Cell Count IC50, HuCCT1, Liver): 1 to 10 µM
- IC50 (HuP-T4, read-out: Cell Count IC50, HuP-T4, Pancreas): 1 to 10 µM
- IC50 (HuTu80, read-out: Cell Count IC50, HuTu 80, Duodenum): 1 to 10 µM
- IC50 (JEG-3, read-out: Cell Count IC50, JEG-3, Placenta): > 10 µM
- IC50 (JIYOYE, read-out: Cell Count IC50, Jiyoye, Hematopoietic, Lymphoma): > 10 µM
- IC50 (JeKo-1, read-out: Cell Count IC50, JeKo-1, Hematopoietic, Lymphoma): 1 to 10 µM
- IC50 (Jurkat, read-out: Cell Count IC50, Jurkat, Hematopoietic, Leukemia): 1 to 10 µM
- IC50 (K562, read-out: Cell Count IC50, K562, Hematopoietic, Leukemia): 1 to 10 µM
- IC50 (KATO III, read-out: Cell Count IC50, KATO III, Stomach): 1 to 10 µM
- IC50 (KU812, read-out: Cell Count IC50, KU812, Hematopoietic, Leukemia): > 10 µM
- IC50 (LNCaP, read-out: Cell Count IC50, LNCaP, Prostate): 0.1 to 1 µM
- IC50 (LS174T, read-out: Cell Count IC50, LS-174T, Colon): 1 to 10 µM
- IC50 (LS-123, read-out: Cell Count IC50, LS123, Colon): 1 to 10 µM
- IC50 (LS-411N, read-out: Cell Count IC50, LS411N, Colon): 1 to 10 µM
- IC50 (LS-513, read-out: Cell Count IC50, LS513, Colon): 1 to 10 µM
- IC50 (LS-1034, read-out: Cell Count IC50, LS1034, Colon): > 10 µM
- IC50 (M059J, read-out: Cell Count IC50, M059J, Central Nervous System, Glioma): > 10 µM
- IC50 (MC-IXC, read-out: Cell Count IC50, MC-IXC, Central Nervous System, Neuroblastoma): > 10 µM
- IC50 (MCF7, read-out: Cell Count IC50, MCF7, Breast): > 10 µM
- IC50 (MDA-MB-231, read-out: Cell Count IC50, MDA MB 231, Breast): 1 to 10 µM
- IC50 (MDA-MB-415, read-out: Cell Count IC50, MDA-MB-415, Breast): > 10 µM
- IC50 (MDA-MB-436, read-out: Cell Count IC50, MDA-MB-436, Breast): > 10 µM
- IC50 (MDA-MB-453, read-out: Cell Count IC50, MDA MB 453, Breast): 1 to 10 µM
- IC50 (MDA-MB-468, read-out: Cell Count IC50, MDA MB 468, Breast): 1 to 10 µM
- IC50 (ME-180, read-out: Cell Count IC50, ME-180, Female GU, Cervix): > 10 µM
- IC50 (MEG-01, read-out: Cell Count IC50, MEG01, Hematopoietic, Leukemia): 1 to 10 µM
- IC50 (MES-SA, read-out: Cell Count IC50, MES-SA, Soft & Connective Tissue, Sarcoma): 1 to 10 µM
- IC50 (MG-63, read-out: Cell Count IC50, MG-63, Bone, Osteosarcoma): 1 to 10 µM
- IC50 (MHH-PREB-1, read-out: Cell Count IC50, MHH-PREB-1, Hematopoietic, Leukemia): 1 to 10 µM
- IC50 (MIA PaCa-2, read-out: Cell Count IC50, Mia PaCa-2, Pancreas): 1 to 10 µM
- IC50 (MOLT-3, read-out: Cell Count IC50, MOLT-3, Hematopoietic, Leukemia): 1 to 10 µM
- IC50 (MOLT-16, read-out: Cell Count IC50, MOLT-16, Hematopoietic, Leukemia): 1 to 10 µM
- IC50 (MV4-11, read-out: Cell Count IC50, MV-4-11, Hematopoietic, Leukemia): 0.1 to 1 µM
- IC50 (Malme-3M, read-out: Cell Count IC50, MALME3M, Skin, Melanoma): > 10 µM
- IC50 (MeWo, read-out: Cell Count IC50, MeWo, Skin, Melanoma): 1 to 10 µM
- IC50 (NALM-6, read-out: Cell Count IC50, NALM-6, Hematopoietic, Leukemia): 1 to 10 µM
- IC50 (NCI-H69, read-out: Cell Count IC50, NCI-H69, Lung, SCLC): 0.1 to 1 µM
- IC50 (NCI-H292, read-out: Cell Count IC50, NCI-H292, Lung, NSCLC): > 10 µM
- IC50 (NCI-H295R, read-out: Cell Count IC50, NCI-H295R, Endocrine, Adrenal gland): > 10 µM
- IC50 (NCI-H441, read-out: Cell Count IC50, NCIH441, Lung, NSCLC): > 10 µM
- IC50 (NCI-H446, read-out: Cell Count IC50, NCIH446, Lung, SCLC): 1 to 10 µM
- IC50 (NCI-H460, read-out: Cell Count IC50, NCI-H460, Lung, NSCLC): > 10 µM
